Laboratory results: PMC12084297, “Cytoplasmic connexin43-microtubule interactions promote glioblastoma stem-like cell maintenance and tumorigenicity” (Cell Death & Disease, 2025)

Legend:
VTC-037 GSCs = experiment: MTS viability, VTC-037 GSCs; assay type: cell-based, human; conditions: 4 days
Description: Cells were plated in 96-well plates (2000–5000 cells per well) and treated the following day with TMZ (10, 50, or 100 μM), antennapedia, JM2-scrambled, or JM2 (10, 50, or 100 μM). After 4 days, cell viability was monitored following addition of MTS reagent (Promega) according to manufacturer’s instructions. The absorbance at 490 nm was measured using a SpectraMax i3 or iD3 microplate reader (Molecular Devices). For the caspase 3/7 activity assay, cells were plated in 96-well plates (2000 cells per well) and treated with TMZ or peptides as described above. The activity of caspase 3/7 was measured after 48 h using the Caspase-Glo® 3/7 assay (Promega) following the manufacturer’s instructions. Fold change of caspase 3/7 activity was defined as the ratio of caspase 3/7 luminescence in treated cells compared to controls.

VTC-034 GSCs = experiment: Cellular uptake by NeutrAvidin-HRP blotting, VTC-034 GSCs; assay type: in vitro ADME, human
Text: JM2 peptide includes the Cx43 C-terminal amino acids 231–245 that encompass the tubulin binding sequence (VFFKGVKDRVKGRSD). A control peptide, JM2-scrambled, was generated by random re-assembly of the same residues (GSDVFKRKFVDRKVG). Both peptides contain a 16-amino acid antennapedia internalization sequence (RQPKIWFPNRRKPWKK) and are N-terminally biotinylated. Lyophilized peptides were obtained from Peptron, Inc. (South Korea) with purity > 95%, reconstituted in water or in PBS at a concentration of 10 mM, and aliquots were stored at −80 °C freezer. Reconstituted peptides were added to the cell culture medium at different concentrations for times indicated. […]
Cells were lysed in RIPA buffer (0.1% sodium dodecyl sulphate, 50 mM Tris pH 7.4, 150 mM NaCl, 1 mM EDTA, 1% Triton X-100, 1% deoxycholic acid, 200 μM Na3VO4, and 1 mM NaF) supplemented with Halt^TM Protease and Phosphatase Inhibitor Cocktail (Thermo Fisher). […] Protein concentration was quantified using the DC protein assay (Bio-Rad Laboratories) and a standard curve obtained with increasing concentrations of Bovine Serum Albumin (BSA; Fisher Scientific). […] Membranes were imaged on a ChemiDoc™ imaging system, and analyzed with Image Lab software (Bio-Rad Laboratories). […]

With VFFKGVKDRVKGRSD [JM2] the “GSC viability with JM2 alone in combination experiment (MTS)” value (VTC-037 GSCs; VTC-037 adherent GSCs, 100 μM) was “significantly decreased GSC viability”, the “GSC survival (MTS)” value (VTC-037 GSCs; VTC-037 adherent GSCs, 10, 50 or 100 μM) was “significantly decreased VTC-001, VTC-034, and VTC-037 GSC survival when cultured as adherent cells in a dose-dependent manner” and the “Cellular uptake over time” value (VTC-034 GSCs; 50 μM, different times up to 48 h, NeutrAvidin-HRP blot) was “apparent after 1 h, and sustained for 24 h before JM2 signal in GSCs decreased at 48 h”. For the same sequence, the “Cellular uptake at increasing concentrations” value (VTC-034 GSCs; different concentrations, 24 h, NeutrAvidin-HRP blot of biotin-tagged peptide) was “Cellular uptake of JM2 at increasing concentrations was confirmed”.
